# Like-named read-outs stand apart in the source and are kept apart here.
# What was measured:
# M. bovis BCG [1] = assay: microbe, parasite or virus in culture; assay type: cell-based, Mycobacterium bovis BCG
# Mtb H37Rv = assay: MIC by broth microdilution against Mtb H37Rv; assay type: cell-based, Mycobacterium tuberculosis; settings: incubation 5 days; for MIC50 Mtb H37Rv: first value of cell MIC50/MIC90
# Mab abscessus ATCC 19977 = assay: MIC against Mab abscessus ATCC 19977; assay type: cell-based, Mycobacterium abscessus subsp. abscessus; settings: for MIC90: read-out: MIC90 Mab abscessus ATCC 19977; for MIC50 Mab abscessus ATCC 19977: 3 days
# [2] = system: Mab massiliense CCUG 48898-T; assay: MIC against Mab massiliense CCUG 48898-T; assay type: cell-based, Mycobacterium abscessus subsp. massiliense; settings: for MIC50 Mab massiliense CCUG 48898-T: 3 days
# [3] = system: Mab bolletii CCUG 50184-T; assay: MIC against Mab bolletii CCUG 50184-T; assay type: cell-based, Mycobacterium abscessus subsp. bolletii; settings: for MIC50 Mab bolletii CCUG 50184-T: 3 days
# Vero E6 = assay: Cytotoxicity in Vero E6 cells; assay type: cell-based, African green monkey; settings: 48 h, growth suppressed by 50% vs untreated
# Experimental: (§1) To each well in a 96-well plate, 50,000 cells in 100 μL media were seeded. Vero E6 and HepG2 cells were incubated overnight in DMEM for cell adherence at 37°C and 5% CO2. The media was removed from the wells and 100 μL solution made up of fresh DMEM media (99 μL) and the test compound (1 μL from a DMSO stock solution that was […] more concentrated than the final concentration in the well) was then added to each well. DMSO content of each well was consistently kept at 0.5 %v/v. Treated plates were incubated for 48 h (5% CO2, 37°C), after which 10 μL of Celltitre 96 Aqueous One Solution was added to each well, without removal of media, and incubated for a further 3 h. Subsequently, absorbance readings were taken at 490 nm on a Tecan GENios Microplate Reader.
# (§2) Cell viability was determined from the expression: Cellviability(%)={[Absorbance(cells+cpd)−Absorbance(cpd)]/[Absorbance(cells+vc)−Absorbance(vc)]}×100% where Absorbance (cells + cpd) = absorbance of wells containing cells and test compound in vehicle (media +0.5% DMSO); Absorbance (cpd) = absorbance of wells containing test compound in vehicle without cells (compound control); Absorbance (cells + vc) = absorbance of wells containing cells in vehicle (vc) only (untreated cells); Absorbance (vc) = absorbance of wells containing vehicle without cells (vehicle control). The percentage viability readings were plotted against log(concentration) on GraphPad Prism (Version 7.0, San Diego, CA) to give a sigmoidal curve, from which IC50, defined as the concentration of the compound that reduced cell viability by 50%, was obtained. At least 3 separate determinations were carried out.
# HepG2 = assay: Cytotoxicity in HepG2 cells; assay type: cell-based, human; settings: 48 h, growth suppressed by 50% vs untreated
# Experimental: as §1, §2
# M. bovis BCG [4] = assay type: cell-based, Mycobacterium bovis BCG
# M. smegmatis mc2155 = assay: MIC against M. smegmatis mc2155; assay type: cell-based, Mycobacterium smegmatis; settings: Mycolicibacterium smegmatis
# [5] = 7H9 medium (first value of cell)
# [6] = CA-MHB medium (second value of cell)
structure (smiles),measurement,setting,value
COc1ccc(CCN(C)CCCC(C#N)(c2ccc(OC)c(OC)c2)C2CCCCCCC2)cc1OC (stereo not shown) [PhA4],MIC50,M. bovis BCG [1],23 µM
same,MIC90,M. bovis BCG [1],44 µM
same,MIC90 (Table S1),M. bovis BCG [1],44 µM
"COc1cccc(CCN(C)CCCC(C#N)(c2ccc(OC)c(OC)c2)C(C)C)c1 (stereo not shown) [PhA57, devapamil, reference compound]",MIC90,"M. bovis BCG [1]; Mycobacterium tuberculosis variant bovis BCG, BCG, read-out: MIC90 (Table S1), M. bovis BCG, broth dilution",180 µM
CC(C)C(C#N)(CCCN(C)CCc1ccc(Cl)c(Cl)c1)c1ccc(Cl)c(Cl)c1 (stereo not shown) [PhA66],MIC50,M. bovis BCG [1],56 µM
COc1ccc(CCN(C)CCCC(C#N)(CC2CCCCC2)c2ccc(Cl)cc2)cc1OC (stereo not shown) [PhA15],MIC50,M. bovis BCG [1],21 µM
same,MIC90,M. bovis BCG [1],37 µM
same,MIC90 (Table S1),M. bovis BCG [1],37 µM
COc1ccc(C(C#N)(CC=C(C)CCC=C(C)C)CCCN2CCN(C(c3ccccc3)c3ccccc3)CC2)cc1OC (stereo not shown) [PhA16],MIC50,M. bovis BCG [1],29 µM
same,MIC90,M. bovis BCG [1],46 µM
same,MIC90 (Table S1),M. bovis BCG [1],46 µM
COc1ccc(C(C#N)(CCCN(C)CCc2ccc(Cl)c(Cl)c2)C(C)C)cc1OC (stereo not shown) [PhA8],MIC50,M. bovis BCG [1],26 µM
same,MIC90,M. bovis BCG [1],45 µM
same,MIC90 (Table S1),M. bovis BCG [1],45 µM
COc1ccc(CCN(C)CCCCCCCCCCCCC(C#N)(c2ccc(OC)c(OC)c2)C(C)C)cc1OC (stereo not shown) [PhA10],MIC50,M. bovis BCG [1],18 µM
same,MIC90,M. bovis BCG [1],32 µM
same,MIC90 (Table S1),M. bovis BCG [1],32 µM
COc1ccc(CCN(C)CCCC(C#N)(CCC2CCCCC2)c2ccc(Cl)c(Cl)c2)cc1OC (stereo not shown) [PhA11],MIC50,M. bovis BCG [1],14 µM
same,MIC50 BCG Without Glycerol,M. bovis BCG [1],46 µM
same,MIC90,M. bovis BCG [1],25 µM
same,MIC90 (Table S1),M. bovis BCG [1],25 µM
same,MIC90 BCG,M. bovis BCG [1],13 µg/mL
same,MIC50 Mtb H37Rv,Mtb H37Rv,19/40 μM
same,MIC90 Mtb H37Rv,Mtb H37Rv,19/40 μM
same,MIC90,Mab abscessus ATCC 19977; 7H9 broth (first value),> 250 µM
same,MIC50 Mab abscessus ATCC 19977,Mab abscessus ATCC 19977; [5],> 250 µM
same,MIC50 Mab abscessus ATCC 19977,Mab abscessus ATCC 19977; [6],175 µM
same,MIC90,Mab abscessus ATCC 19977; camH broth (second value),> 250 µM
same,MIC90,[2]; 7H9 broth (first value),> 250 µM
same,MIC50 Mab massiliense CCUG 48898-T,[2]; [5],> 250 µM
same,MIC50 Mab massiliense CCUG 48898-T,[2]; [6],21 µM
same,MIC90,[2]; camH broth (second value),> 250 µM
same,MIC90,[3]; 7H9 broth (first value),> 250 µM
same,MIC50 Mab bolletii CCUG 50184-T,[3]; [5],> 250 µM
same,MIC50 Mab bolletii CCUG 50184-T,[3]; [6],160 µM
same,MIC90,[3]; camH broth (second value),> 250 µM
same,IC50,Vero E6,57 µM
same,IC50,HepG2,44 µM
COc1ccc(CCN(C)CCCCCCCCCCC(C#N)(c2ccc(OC)c(OC)c2)C(C)C)cc1OC (stereo not shown) [PhA9],MIC50,M. bovis BCG [1],11 µM
same,MIC50 BCG With Glycerol,M. bovis BCG [1],11 µM
same,MIC50 BCG Without Glycerol,M. bovis BCG [1],22 µM
same,MIC90,M. bovis BCG [1],22 µM
same,MIC90 (Table S1),M. bovis BCG [1],22 µM
same,MIC90 BCG,M. bovis BCG [1],12 µg/mL
same,MIC90,Mab abscessus ATCC 19977; 7H9 broth (first value),190 µM
same,MIC50 Mab abscessus ATCC 19977,Mab abscessus ATCC 19977; [5],74/– ^e uM
same,MIC90,[2]; 7H9 broth (first value),> 200 µM
same,MIC50 Mab massiliense CCUG 48898-T,[2]; [5],123/– ^e uM
same,MIC90,[3]; 7H9 broth (first value),200 µM
same,MIC50 Mab bolletii CCUG 50184-T,[3]; [5],103/– ^e uM
same,IC50,Vero E6,15 µM
same,IC50,HepG2,15 µM
same,MBC99.9 (10^3-fold kill),M. bovis BCG [4],2 x MIC90
COc1ccc(CCN(C)CCCC(C#N)(CCCCCCCN=[N+]=[N-])c2ccc(OC)c(OC)c2)cc1OC (stereo not shown) [AZ-2],MIC90,"M. bovis BCG [1]; Mycobacterium tuberculosis variant bovis BCG, BCG, M. bovis BCG, broth dilution, growth reduced by 90% vs untreated",27 µM
same,MIC50,"M. bovis BCG [1]; Mycobacterium tuberculosis variant bovis BCG, BCG, read-out: M. bovis BCG MIC50 (Table S4)",12 µM
same,MIC90,"M. bovis BCG [1]; Mycobacterium tuberculosis variant bovis BCG, BCG, read-out: M. bovis BCG MIC90 (Table S4)",27 µM
same,MIC50,"M. smegmatis mc2155; MC2155, 24 h, incubation 1 day, read-out: M. smegmatis mc2155 MIC50 (Table S4)",38 µM
same,MIC90,"M. smegmatis mc2155; MC2155, 24 h, incubation 1 day, read-out: M. smegmatis mc2155 MIC90 (Table S4)",58 µM
same,MIC90,"M. smegmatis mc2155; MC2155, read-out: MIC90 M. smegmatis",58 µM
CCCCCCCCC(C#N)(CCCN(C)CCc1ccc(OC)c(OC)c1)c1ccc(Cl)c(Cl)c1 (stereo not shown) [PhA12],MIC50,M. bovis BCG [1],16 µM
same,MIC50 BCG Without Glycerol,M. bovis BCG [1],35 µM
same,MIC90,M. bovis BCG [1],29 µM
same,MIC90 (Table S1),M. bovis BCG [1],29 µM
same,MIC90 BCG,M. bovis BCG [1],16 µg/mL
same,MIC50 Mtb H37Rv,Mtb H37Rv,23/46 μM
same,MIC90 Mtb H37Rv,Mtb H37Rv,23/46 μM
same,MIC90,Mab abscessus ATCC 19977; 7H9 broth (first value),> 250 µM
same,MIC50 Mab abscessus ATCC 19977,Mab abscessus ATCC 19977; [5],> 250 µM
same,MIC50 Mab abscessus ATCC 19977,Mab abscessus ATCC 19977; [6],194 µM
same,MIC90,Mab abscessus ATCC 19977; camH broth (second value),> 250 µM
same,MIC90,[2]; 7H9 broth (first value),> 250 µM
same,MIC50 Mab massiliense CCUG 48898-T,[2]; [5],> 250 µM
same,MIC50 Mab massiliense CCUG 48898-T,[2]; [6],31 µM
same,MIC90,[2]; camH broth (second value),> 250 µM
same,MIC90,[3]; 7H9 broth (first value),> 250 µM
same,MIC50 Mab bolletii CCUG 50184-T,[3]; [5],> 250 µM
same,MIC50 Mab bolletii CCUG 50184-T,[3]; [6],72 µM
same,MIC90,[3]; camH broth (second value),> 250 µM
same,IC50,Vero E6,69 µM
same,IC50,HepG2,51 µM
same,MBC99.9 (10^3-fold kill),M. bovis BCG [4],4 x MIC90
COc1ccc(C(C#N)(CCCN2CCN(c3ccccc3Cl)CC2)C(C)C)cc1OC (stereo not shown) [PhA19],MIC90 (Table S1),M. bovis BCG [1],73 µM

# From publication PMC12281142, “A potent phenylalkylamine disrupts mycobacterial membrane bioenergetics and augments bactericidal activity of bedaquiline” (iScience, 2025)
